# Measured values taken from PMC8799717, “Pharmacological targeting PIKfyve and tubulin as an effective treatment strategy for double-hit lymphoma” (Cell Death Discovery, 2022).
# Assays:
# Assay in all cases: biochemical
# Design in all cases: KINOMEscan active-site-directed competition binding panel, 468 kinases, percent of DMSO control at 1 uM
# Settings in all cases: KINOMEscan binding, percent of DMSO control; read-out: Ctrl%
# [1] = target: T1, ABL1(T315I)-nonphosphorylated (Homo sapiens, UniProt P00519, T315I)
# T1 construct: nonphosphorylated
# ACVR2A = ACVR2A (Homo sapiens, UniProt P27037)
# ALK = ALK (Homo sapiens, UniProt Q9UM73)
# BRK = target: T2, BRK (Homo sapiens, UniProt Q13882)
# T2 construct: gene PTK6
# CAMK2A = CAMK2A (Homo sapiens, UniProt Q9UQM7)
# CSK = CSK (Homo sapiens, UniProt P41240)
# Chain of CSK (P41240 whole entry): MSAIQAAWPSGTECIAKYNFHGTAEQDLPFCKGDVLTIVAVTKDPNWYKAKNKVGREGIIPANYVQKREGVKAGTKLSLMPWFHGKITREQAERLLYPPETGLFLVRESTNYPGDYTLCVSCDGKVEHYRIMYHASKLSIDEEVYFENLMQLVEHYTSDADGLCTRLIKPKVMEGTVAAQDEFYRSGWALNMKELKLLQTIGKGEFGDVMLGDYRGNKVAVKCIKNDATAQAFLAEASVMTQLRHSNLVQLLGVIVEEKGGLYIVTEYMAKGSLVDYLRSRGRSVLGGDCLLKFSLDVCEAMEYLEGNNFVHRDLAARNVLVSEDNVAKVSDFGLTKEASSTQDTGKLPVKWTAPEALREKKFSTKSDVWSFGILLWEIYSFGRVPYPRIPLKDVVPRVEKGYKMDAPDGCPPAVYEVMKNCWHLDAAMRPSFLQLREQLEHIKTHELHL
# DMPK2 = target: T3, DMPK2 (Homo sapiens, UniProt Q6DT37)
# T3 construct: gene CDC42BPG
# T3 sequence (Q6DT37 whole entry): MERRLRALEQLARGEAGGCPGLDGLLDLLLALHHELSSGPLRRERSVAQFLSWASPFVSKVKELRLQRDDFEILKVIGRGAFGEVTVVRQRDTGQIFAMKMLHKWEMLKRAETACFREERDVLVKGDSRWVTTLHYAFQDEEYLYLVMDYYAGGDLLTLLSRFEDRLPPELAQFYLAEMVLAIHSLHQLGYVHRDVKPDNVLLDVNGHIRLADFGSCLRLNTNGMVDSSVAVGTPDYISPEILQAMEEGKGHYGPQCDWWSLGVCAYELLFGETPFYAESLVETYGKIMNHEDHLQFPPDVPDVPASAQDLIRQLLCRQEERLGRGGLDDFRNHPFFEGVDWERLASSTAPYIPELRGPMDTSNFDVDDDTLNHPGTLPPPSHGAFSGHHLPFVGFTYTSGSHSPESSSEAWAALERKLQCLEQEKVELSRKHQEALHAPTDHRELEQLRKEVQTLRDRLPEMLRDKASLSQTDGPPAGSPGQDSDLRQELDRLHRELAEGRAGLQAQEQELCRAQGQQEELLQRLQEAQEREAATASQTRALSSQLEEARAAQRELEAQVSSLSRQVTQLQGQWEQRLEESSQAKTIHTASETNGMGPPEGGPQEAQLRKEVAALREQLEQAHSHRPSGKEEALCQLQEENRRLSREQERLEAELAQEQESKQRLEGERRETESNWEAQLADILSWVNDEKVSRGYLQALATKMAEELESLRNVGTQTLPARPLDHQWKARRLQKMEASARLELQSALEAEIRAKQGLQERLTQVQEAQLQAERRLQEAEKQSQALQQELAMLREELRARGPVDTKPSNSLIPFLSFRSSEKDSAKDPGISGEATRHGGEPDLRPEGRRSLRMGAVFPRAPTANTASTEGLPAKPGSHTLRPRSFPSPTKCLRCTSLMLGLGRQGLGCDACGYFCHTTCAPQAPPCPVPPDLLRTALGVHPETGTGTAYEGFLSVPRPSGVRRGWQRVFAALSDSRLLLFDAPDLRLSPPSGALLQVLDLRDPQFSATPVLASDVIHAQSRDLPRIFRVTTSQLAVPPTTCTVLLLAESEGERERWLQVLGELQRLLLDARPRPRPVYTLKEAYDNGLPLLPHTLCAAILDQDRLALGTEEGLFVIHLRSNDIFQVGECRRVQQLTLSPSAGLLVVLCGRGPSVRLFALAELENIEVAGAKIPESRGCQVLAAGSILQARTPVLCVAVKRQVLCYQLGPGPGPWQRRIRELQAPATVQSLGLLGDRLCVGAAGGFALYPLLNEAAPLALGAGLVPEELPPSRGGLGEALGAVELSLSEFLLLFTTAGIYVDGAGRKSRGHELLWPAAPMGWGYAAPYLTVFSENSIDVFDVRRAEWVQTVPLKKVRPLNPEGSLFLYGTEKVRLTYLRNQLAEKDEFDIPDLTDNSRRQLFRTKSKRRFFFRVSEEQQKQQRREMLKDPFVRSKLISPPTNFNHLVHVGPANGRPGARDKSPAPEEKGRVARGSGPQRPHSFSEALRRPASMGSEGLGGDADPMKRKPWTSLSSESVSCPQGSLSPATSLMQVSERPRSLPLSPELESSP
# ERBB2 = ERBB2 (Homo sapiens, UniProt P04626)
# Chain of ERBB2 (P04626 whole entry): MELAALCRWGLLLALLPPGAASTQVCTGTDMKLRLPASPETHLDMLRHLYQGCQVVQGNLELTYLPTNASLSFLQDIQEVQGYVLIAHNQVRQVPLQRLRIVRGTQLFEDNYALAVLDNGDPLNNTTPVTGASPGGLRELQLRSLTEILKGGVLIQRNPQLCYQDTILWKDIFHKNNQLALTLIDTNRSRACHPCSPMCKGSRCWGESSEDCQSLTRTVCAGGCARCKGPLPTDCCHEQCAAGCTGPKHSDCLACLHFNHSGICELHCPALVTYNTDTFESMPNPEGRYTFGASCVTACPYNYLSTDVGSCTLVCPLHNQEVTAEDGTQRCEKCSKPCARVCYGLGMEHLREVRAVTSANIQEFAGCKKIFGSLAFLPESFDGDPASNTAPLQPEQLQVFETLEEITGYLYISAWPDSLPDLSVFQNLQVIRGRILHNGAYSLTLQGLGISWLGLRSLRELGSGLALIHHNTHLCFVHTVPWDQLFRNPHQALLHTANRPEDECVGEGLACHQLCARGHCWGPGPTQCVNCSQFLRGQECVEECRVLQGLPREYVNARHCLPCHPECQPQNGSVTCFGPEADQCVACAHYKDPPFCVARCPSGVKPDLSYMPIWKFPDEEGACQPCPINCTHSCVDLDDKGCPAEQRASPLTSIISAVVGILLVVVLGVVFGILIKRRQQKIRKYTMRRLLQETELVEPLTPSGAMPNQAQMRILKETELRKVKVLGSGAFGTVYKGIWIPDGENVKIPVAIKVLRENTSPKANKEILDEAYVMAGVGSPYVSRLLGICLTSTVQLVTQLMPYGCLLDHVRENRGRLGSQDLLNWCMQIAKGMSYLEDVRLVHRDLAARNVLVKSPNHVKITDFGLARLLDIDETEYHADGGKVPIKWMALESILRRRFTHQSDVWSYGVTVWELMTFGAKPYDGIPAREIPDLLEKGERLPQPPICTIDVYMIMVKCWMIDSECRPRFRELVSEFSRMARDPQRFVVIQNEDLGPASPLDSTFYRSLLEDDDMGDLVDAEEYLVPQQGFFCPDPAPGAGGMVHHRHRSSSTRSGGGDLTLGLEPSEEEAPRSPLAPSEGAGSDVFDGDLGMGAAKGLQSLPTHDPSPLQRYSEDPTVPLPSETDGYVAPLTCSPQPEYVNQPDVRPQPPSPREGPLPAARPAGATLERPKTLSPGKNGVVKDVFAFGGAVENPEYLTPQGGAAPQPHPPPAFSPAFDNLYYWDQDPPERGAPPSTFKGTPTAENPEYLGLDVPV
# ERK3 = target: T4, ERK3 (Homo sapiens, UniProt Q16659)
# T4 construct: gene MAPK6
# GRK1 = GRK1 (Homo sapiens, UniProt Q15835)
# IKK-alpha = target: T5, IKK-alpha (Homo sapiens, UniProt O15111)
# T5 construct: gene CHUK
# [2] = target: T6, JAK2(JH1domain-catalytic) (Homo sapiens, UniProt O60674)
# T6 construct: JH1domain-catalytic
# JNK2 = target: T7, JNK2 (Homo sapiens, UniProt P45984)
# T7 construct: gene MAPK9
# MAST1 = MAST1 (Homo sapiens, UniProt Q9Y2H9)
# MEK3 = target: T8, MEK3 (Homo sapiens, UniProt P46734)
# T8 construct: gene MAP2K3
# MRCKA = target: T9, MRCKA (Homo sapiens, UniProt Q5VT25)
# T9 construct: gene CDC42BPA
# PHKG2 = PHKG2 (Homo sapiens, UniProt P15735)
# RIPK5 = target: T10, RIPK5 (Homo sapiens, UniProt Q6XUX3)
# T10 construct: gene DSTYK
# T10 sequence (Q6XUX3 whole entry): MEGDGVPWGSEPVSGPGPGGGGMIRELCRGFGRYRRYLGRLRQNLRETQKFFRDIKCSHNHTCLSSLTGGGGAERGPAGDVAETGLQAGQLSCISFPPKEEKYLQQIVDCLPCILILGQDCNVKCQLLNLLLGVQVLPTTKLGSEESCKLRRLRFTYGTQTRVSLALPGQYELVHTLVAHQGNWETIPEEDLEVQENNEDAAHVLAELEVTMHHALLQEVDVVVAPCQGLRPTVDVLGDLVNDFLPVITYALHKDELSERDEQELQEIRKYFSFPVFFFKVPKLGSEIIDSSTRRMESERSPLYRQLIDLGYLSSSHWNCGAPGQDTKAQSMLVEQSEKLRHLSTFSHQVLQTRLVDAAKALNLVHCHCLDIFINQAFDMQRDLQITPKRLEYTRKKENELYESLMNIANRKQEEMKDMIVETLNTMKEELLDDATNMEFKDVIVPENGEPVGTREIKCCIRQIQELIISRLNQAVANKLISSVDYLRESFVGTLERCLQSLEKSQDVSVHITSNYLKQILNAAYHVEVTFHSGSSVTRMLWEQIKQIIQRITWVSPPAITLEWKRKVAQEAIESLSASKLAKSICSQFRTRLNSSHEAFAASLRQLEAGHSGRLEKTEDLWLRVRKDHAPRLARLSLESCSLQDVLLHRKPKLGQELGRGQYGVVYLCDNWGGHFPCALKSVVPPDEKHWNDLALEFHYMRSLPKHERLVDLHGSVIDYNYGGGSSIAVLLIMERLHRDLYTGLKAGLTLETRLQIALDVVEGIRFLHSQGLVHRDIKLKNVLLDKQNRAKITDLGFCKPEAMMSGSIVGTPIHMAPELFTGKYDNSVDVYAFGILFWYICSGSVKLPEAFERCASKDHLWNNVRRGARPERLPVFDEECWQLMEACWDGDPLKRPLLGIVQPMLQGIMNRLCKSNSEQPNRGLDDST
# ROS1 = ROS1 (Homo sapiens, UniProt P08922)
# [3] = target: T11, RPS6KA5(Kin.Dom.1-N-terminal) (Homo sapiens, UniProt O75582)
# T11 construct: Kin.Dom.1-N-terminal
# T11 sequence (O75582 whole entry): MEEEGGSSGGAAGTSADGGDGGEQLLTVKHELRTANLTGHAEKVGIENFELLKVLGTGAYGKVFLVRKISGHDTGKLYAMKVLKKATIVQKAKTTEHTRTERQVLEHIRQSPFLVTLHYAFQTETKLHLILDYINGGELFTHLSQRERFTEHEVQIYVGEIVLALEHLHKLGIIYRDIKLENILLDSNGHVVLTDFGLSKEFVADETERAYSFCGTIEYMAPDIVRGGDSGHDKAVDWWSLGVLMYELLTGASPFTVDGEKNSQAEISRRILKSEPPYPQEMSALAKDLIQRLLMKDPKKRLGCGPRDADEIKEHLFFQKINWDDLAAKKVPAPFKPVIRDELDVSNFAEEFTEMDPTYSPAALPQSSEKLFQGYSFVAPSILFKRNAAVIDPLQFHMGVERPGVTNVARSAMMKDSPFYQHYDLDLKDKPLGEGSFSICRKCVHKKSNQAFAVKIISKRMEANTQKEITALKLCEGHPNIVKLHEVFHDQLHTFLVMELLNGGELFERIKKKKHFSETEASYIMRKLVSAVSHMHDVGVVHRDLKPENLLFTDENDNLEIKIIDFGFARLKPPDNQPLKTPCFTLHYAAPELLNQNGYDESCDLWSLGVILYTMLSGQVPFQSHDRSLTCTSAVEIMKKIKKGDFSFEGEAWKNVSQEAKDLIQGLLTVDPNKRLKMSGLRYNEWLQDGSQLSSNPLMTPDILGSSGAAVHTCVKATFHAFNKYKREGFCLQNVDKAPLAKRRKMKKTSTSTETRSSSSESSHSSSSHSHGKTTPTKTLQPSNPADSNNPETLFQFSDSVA
# [4] = target: T12, RSK4(Kin.Dom.2-C-terminal) (Homo sapiens, UniProt Q9UK32)
# T12 construct: gene RPS6KA6; Kin.Dom.2-C-terminal
# TBK1 = TBK1 (Homo sapiens, UniProt Q9UHD2)
# p38-alpha = target: T13, p38-alpha (Homo sapiens, UniProt Q16539)
# T13 construct: gene MAPK14
smiles,measurement,setting,value
Cc1ccc(NC(=O)c2cccc(C(F)(F)F)c2)cc1Nc1cc(-c2cccnc2)nc2[nH]ccc12 [HZX-02-059],remaining binding at 1 µM,[1],77%
same,remaining binding at 1 µM,ACVR2A,75%
same,remaining binding at 1 µM,ALK,100%
same,remaining binding at 1 µM,BRK,83%
same,remaining binding at 1 µM,CAMK2A,98%
same,remaining binding at 1 µM,CSK,91%
same,remaining binding at 1 µM,DMPK2,99%
same,remaining binding at 1 µM,ERBB2,95%
same,remaining binding at 1 µM,ERK3,100%
same,remaining binding at 1 µM,GRK1,77%
same,remaining binding at 1 µM,IKK-alpha,100%
same,remaining binding at 1 µM,[2],100%
same,remaining binding at 1 µM,JNK2,99%
same,remaining binding at 1 µM,MAST1,100%
same,remaining binding at 1 µM,MEK3,83%
same,remaining binding at 1 µM,MRCKA,88%
same,remaining binding at 1 µM,PHKG2,92%
same,remaining binding at 1 µM,RIPK5,100%
same,remaining binding at 1 µM,ROS1,72%
same,remaining binding at 1 µM,[3],94%
same,remaining binding at 1 µM,[4],97%
same,remaining binding at 1 µM,TBK1,100%
same,remaining binding at 1 µM,p38-alpha,77%
